Data as given in ChEMBL document CHEMBL5131556, “Ibogaine and Their Analogs as Therapeutics for Neurological and Psychiatric Disorders” (ACS Med Chem Lett, 2022).

Experiments:
[1] = target: Synaptic vesicular amine transporter (Rattus norvegicus, UniProt Q01827); test: Inhibition of rat VMAT2 transfected in HEK cells using FFN206 as fluorescent substrate preincubated for 1 hr followed by substrate addition and measured after 30 mins by fluorescence plate reader assay; type: cell-based
[2] = target: Sodium-dependent serotonin transporter (Homo sapiens, UniProt P31645); test: Inhibition of human SERT transfected in HEK cells using APP+ as fluorescent substrate preincubated for 1 hr followed by substrate addition and measured after 30 mins by fluorescence plate reader assay; type: cell-based
Sequence of Sodium-dependent serotonin transporter (P31645 whole entry): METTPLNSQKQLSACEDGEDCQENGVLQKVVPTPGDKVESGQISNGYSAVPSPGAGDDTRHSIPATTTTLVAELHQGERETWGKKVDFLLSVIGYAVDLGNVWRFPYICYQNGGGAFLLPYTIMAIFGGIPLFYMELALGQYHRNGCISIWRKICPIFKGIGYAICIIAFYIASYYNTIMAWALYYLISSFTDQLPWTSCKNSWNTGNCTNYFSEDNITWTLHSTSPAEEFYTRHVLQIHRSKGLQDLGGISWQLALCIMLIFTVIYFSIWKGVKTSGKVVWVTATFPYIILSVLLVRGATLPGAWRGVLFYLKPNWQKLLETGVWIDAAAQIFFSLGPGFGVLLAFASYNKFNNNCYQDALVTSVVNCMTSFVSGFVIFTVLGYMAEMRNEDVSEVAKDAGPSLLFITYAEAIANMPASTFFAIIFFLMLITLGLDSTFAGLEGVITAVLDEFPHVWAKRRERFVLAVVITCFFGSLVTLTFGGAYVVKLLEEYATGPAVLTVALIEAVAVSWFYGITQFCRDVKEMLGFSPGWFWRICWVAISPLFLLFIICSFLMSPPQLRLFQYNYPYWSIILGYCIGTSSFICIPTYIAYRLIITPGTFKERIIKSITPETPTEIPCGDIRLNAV

Sequence of Synaptic vesicular amine transporter (Q01827 whole entry): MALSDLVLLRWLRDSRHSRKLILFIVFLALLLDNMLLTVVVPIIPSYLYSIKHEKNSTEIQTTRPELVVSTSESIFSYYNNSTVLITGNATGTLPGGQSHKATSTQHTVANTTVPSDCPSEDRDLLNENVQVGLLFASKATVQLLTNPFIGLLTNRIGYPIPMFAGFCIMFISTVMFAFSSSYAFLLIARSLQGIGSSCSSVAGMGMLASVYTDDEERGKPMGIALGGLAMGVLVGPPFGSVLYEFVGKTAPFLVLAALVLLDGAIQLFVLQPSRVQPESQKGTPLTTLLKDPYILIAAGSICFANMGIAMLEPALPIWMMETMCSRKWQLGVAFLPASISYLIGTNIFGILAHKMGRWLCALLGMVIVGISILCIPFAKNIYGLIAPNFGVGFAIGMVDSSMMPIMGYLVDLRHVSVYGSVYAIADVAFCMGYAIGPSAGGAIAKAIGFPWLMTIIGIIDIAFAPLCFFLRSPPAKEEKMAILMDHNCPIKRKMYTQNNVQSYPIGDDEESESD

| SMILES | IC50 [1] | IC50 [2] |
| --- | --- | --- |
| CC[C@H]1C[C@@H]2C[C@H]3c4[nH]c5ccc(OC)cc5c4CCN(C2)[C@@H]13 | 4000 nM |  |
| CC[C@H]1C[C@@H]2C[C@H]3c4c(c5cc(OC)ccc5n4C)CCN(C2)[C@@H]13 | 740 nM | 1500 nM |
| CC[C@H]1C[C@@H]2C[C@H]3c4[nH]c5ccc(C#N)cc5c4CCN(C2)[C@@H]13 | 3300 nM | 26 nM |
| CC[C@H]1C[C@@H]2C[C@H]3c4c(c5cc(O)ccc5n4CC)CCN(C2)[C@@H]13 | 70 nM | 1900 nM |
| CCc1ccc2c(c1)c1c(n2C)[C@@H]2C[C@H]3C[C@H](CC)[C@@H]2N(CC1)C3 | 750 nM | 910 nM |
| CC[C@H]1C[C@@H]2C[C@H]3c4[nH]c5ccccc5c4CCN(C2)[C@@H]13 | 3000 nM | 330 nM |
| CC[C@H]1C[C@@H]2C[C@H]3c4[nH]c5ccc(OC)c(Br)c5c4CCN(C2)[C@@H]13 | 4900 nM | 670 nM |
| CC[C@H]1C[C@@H]2C[C@H]3c4c(c5cc(C#N)ccc5n4C)CCN(C2)[C@@H]13 | 440 nM | 5.1 nM |
| CC[C@H]1C[C@@H]2C[C@H]3c4c(c5ccccc5n4C)CCN(C2)[C@@H]13 | 1500 nM | 80 nM |
| CC[C@H]1C[C@@H]2CC3c4[nH]c5ccc(O)cc5c4CCN(C2)[C@H]31 | 570 nM |  |
| CCOc1ccc2[nH]c3c(c2c1)CCN1C[C@@H]2C[C@H](CC)[C@H]1[C@H]3C2 | 80 nM | 9000 nM |
| CC[C@H]1C[C@@H]2C[C@H]3c4c(c5cc(O)ccc5n4C)CCN(C2)[C@@H]13 | 170 nM | 59 nM |
